Experimental data reported in patent US10316017B2, “COT modulators and methods of use thereof” (Gilead Sciences, Inc., priority 2015, dated 2019).

Key:
[1] = biological target: T1, human Cot catalytic domain (30-397 amino acids) (Homo sapiens, UniProt P41279); test: High Throughput Cot Biochemical Assay (KinEASE TR-FRET); details: Cot biochemical HTRF (KinEASE TR-FRET) assay; read-out: IC50 HTRF
T1 construct: Purified recombinant human Cot catalytic domain (30-397 amino acids) was purchased from Cama Biosciences; purchased Cama Biosciences (so in the source)
Procedure, shortened: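 TR-FRET (KinEASE) read-out: Eu-labelled phospho-specific antibody binds XL665-tagged STK3 peptide (1 μM) phosphorylated by 5 nM human Cot kinase domain (residues 30-397). Reaction at 400 μM ATP, pH 7.0 MOPS buffer with 10 mM MgOAc, 1 mM DTT and 0.1% DMSO.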

[2] = test system: TNFα production in LPS-stimulated human monocytes; test: Cot Monocyte TNFα Cell Based Assay; details: Homo sapiens, Monocyte, TNFα in LPS-stimulated human monocytes; read-out: EC50 TNF
Procedure, shortened: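 TNFα release quantified by two-antibody TR-FRET, normalised to unstimulated (0%) and LPS-stimulated (100%) wells. Cells got a 1 h compound exposure at 37° C in 0.5% DMSO before 4 h challenge with 50 pg/ml LPS, at 5,000 cells/well.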

T1 sequence (P41279 30-397): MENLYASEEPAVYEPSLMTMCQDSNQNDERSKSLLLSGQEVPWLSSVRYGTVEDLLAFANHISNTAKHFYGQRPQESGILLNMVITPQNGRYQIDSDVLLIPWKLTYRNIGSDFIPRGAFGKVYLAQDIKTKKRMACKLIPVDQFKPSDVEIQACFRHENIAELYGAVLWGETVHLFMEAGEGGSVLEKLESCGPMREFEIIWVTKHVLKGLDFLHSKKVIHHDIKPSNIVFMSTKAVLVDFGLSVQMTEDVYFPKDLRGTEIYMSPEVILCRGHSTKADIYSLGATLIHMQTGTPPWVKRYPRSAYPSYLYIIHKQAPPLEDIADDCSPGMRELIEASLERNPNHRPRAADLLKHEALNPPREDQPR

| IC50 [1] [nM] | EC50 [2] [nM] | Structure (SMILES) |
| --- | --- | --- |
| 4 | 110 | CCN1CC(Cn2cc([C@@H](Nc3cc(Cl)c4ncc(C#N)c(Nc5ccc(F)c(Cl)c5)c4c3)c3ccccc3)nn2)C1 [Example 747, (S)-8-chloro-4-((3-chloro-4-fluorophenyl)amino)-6-(((1-((1-ethylazetidin-3-yl)methyl)-1H-1,2,3-triazol-4-yl)(phenyl)methyl)amino) quinoline-3-carbonitrile] |
| 60 | 610 | N#Cc1cnc2c(Cl)cc(N[C@@H](c3ccccc3)c3cn(C4CNCC(F)(F)C4)nn3)cc2c1Nc1ccc(F)c(Cl)c1 (stereo partly drawn) [Example 748, 8-chloro-4-((3-chloro-4-fluorophenyl)amino)-6-(((1S)-(1-(5,5-difluoropiperidin-3-yl)-1H-1,2,3-triazol-4-yl)(phenyl)methyl)amino) quinoline-3-carbonitrile] |
| 1890 | 4720 | CC(C)(C)N1CCC(n2cc([C@@H](Nc3cc(Cl)c4ncc(C#N)c(Nc5ccc(C(F)(F)F)nc5)c4c3)c3ccc(Cl)cc3)nn2)CC1 [Example 750, (S)-6-(((1-(1-(tert-butyl)piperidin-4-yl)-1H-1,2,3-triazol-4-yl)(4-chlorophenyl)methyl)amino)-8-chloro-4-((6-(trifluoromethyl)pyridin-3-yl)amino)quinoline-3-carbonitrile] |
| 88 | 1680 | CC(C)(C)N1CCC(n2cc([C@@H](Nc3cc(Cl)c4ncc(C#N)c(Nc5cccc(C#N)c5)c4c3)c3ccc(Cl)cc3)nn2)CC1 [Example 753, (S)-6-(((1-(1-(tert-butyl)piperidin-4-yl)-1H-1,2,3-triazol-4-yl)(4-chlorophenyl)methyl)amino)-8-chloro-4-((3-cyanophenyl)amino)quinoline-3-carbonitrile] |
| 201 | 3200 | CC(C)(C)N1CCC(n2cc([C@@H](Nc3cc(Cl)c4ncc(C#N)c(Nc5ccc(Cl)c(F)c5)c4c3)c3ccc(Cl)cc3)nn2)CC1 [Example 755, (S)-6-(((1-(1-(tert-butyl)piperidin-4-yl)-1H-1,2,3-triazol-4-yl)(4-chlorophenyl)methyl)amino)-8-chloro-4-((4-chloro-3-fluorophenyl)amino)quinoline-3-carbonitrile] |
| 108 | 2980 | CC(C)(C)N1CCC(n2cc([C@@H](Nc3cc(Cl)c4ncc(C#N)c(Nc5cc(Cl)cc(Cl)c5)c4c3)c3ccc(Cl)cc3)nn2)CC1 [Example 756, (S)-6-(((1-(1-(tert-butyl)piperidin-4-yl)-1H-1,2,3-triazol-4-yl)(4-chlorophenyl)methyl)amino)-8-chloro-4-((3,5-dichlorophenyl)amino)quinoline-3-carbonitrile] |
| 41 | 738 | CC(C)(C)N1CCC(n2cc([C@@H](Nc3cc(Cl)c4ncc(C#N)c(Nc5cccc(Br)c5)c4c3)c3ccc(Cl)cc3)nn2)CC1 [Example 757, (S)-4-((3-bromophenyl)amino)-6-(((1-(1-(tert-butyl)piperidin-4-yl)-1H-1,2,3-triazol-4-yl)(4-chlorophenyl)methyl)amino)-8-chloroquinoline-3-carbonitrile] |
| 97 | 1310 | CC(C)(C)N1CCC(n2cc([C@@H](Nc3cc(Cl)c4ncc(C#N)c(Nc5ccccc5Cl)c4c3)c3ccc(Cl)cc3)nn2)CC1 [Example 758, (S)-6-(((1-(1-(tert-butyl)piperidin-4-yl)-1H-1,2,3-triazol-4-yl)(4-chlorophenyl)methyl)amino)-8-chloro-4-((2-chlorophenyl)amino)quinoline-3-carbonitrile] |
| 2140 | 2750 | CC(C)(C)N1CCC(n2cc([C@@H](Nc3cc(Cl)c4ncc(C#N)c(Nc5ccc(OC(F)(F)F)cc5)c4c3)c3ccc(Cl)cc3)nn2)CC1 [Example 759, (S)-6-(((1-(1-(tert-butyl)piperidin-4-yl)-1H-1,2,3-triazol-4-yl)(4-chlorophenyl)methyl)amino)-8-chloro-4-((4-(trifluoromethoxy)phenyl)amino) quinoline-3-carbonitrile] |
| 38 | 3270 | CC(C)(C)N1CCC(n2cc([C@@H](Nc3cc(Cl)c4ncc(C#N)c(Nc5cc(F)cc(F)c5)c4c3)c3ccc(Cl)cc3)nn2)CC1 [Example 764, (S)-6-(((1-(1-(tert-butyl)piperidin-4-yl)-1H-1,2,3-triazol-4-yl)(4-chlorophenyl)methyl)amino)-8-chloro-4-((3,5-difluorophenyl)amino)quinoline-3-carbonitrile] |
| 70 | 1290 | CC(C)(C)N1CCC(n2cc([C@@H](Nc3cc(Cl)c4ncc(C#N)c(Nc5ccc(Cl)c(Cl)c5)c4c3)c3ccc(Cl)cc3)nn2)CC1 [Example 765, (S)-6-(((1-(1-(tert-butyl)piperidin-4-yl)-1H-1,2,3-triazol-4-yl)(4-chlorophenyl)methyl)amino)-8-chloro-4-((3,4-dichlorophenyl)amino)quino1ine-3-carbonitrile] |
| 41 | 1770 | CC(C)(C)N1CCC(n2cc([C@@H](Nc3cc(Cl)c4ncc(C#N)c(Nc5ccc(F)cc5)c4c3)c3ccc(Cl)cc3)nn2)CC1 [Example 766, (S)-6-(((1-(1-(tert-butyl)piperidin-4-yl)-1H-1,2,3-triazol-4-yl)(4-chlorophenyl)methyl)amino)-8-chloro-4-((4-fluorophenyl)amino)quinoline-3-carbonitrile] |
| 48 | 1270 | CC(C)(C)N1CCC(n2cc([C@@H](Nc3cc(Cl)c4ncc(C#N)c(Nc5cccc(F)c5)c4c3)c3ccc(Cl)cc3)nn2)CC1 [Example 767, (S)-6-(((1-(1-(tert-butyl)piperidin-4-yl)-1H-1,2,3-triazol-4-yl)(4-chlorophenyl)methyl)amino)-8-chloro-4-((3-fluorophenyl)amino)quinoline-3-carbonitrile] |
| 83 | 2500 | CC(C)(C)N1CCC(n2cc([C@@H](Nc3cc(Cl)c4ncc(C#N)c(Nc5ccccc5F)c4c3)c3ccc(Cl)cc3)nn2)CC1 [Example 768, (S)-6-(((1-(1-(tert-butyl)piperidin-4-yl)-1H-1,2,3-triazol-4-yl)(4-chlorophenyl)methyl)amino)-8-chloro-4-((2-fluorophenyl)amino)quinoline-3-carbonitrile] |
| 3 | 127 | CCN1CC2(CC(n3cc([C@@H](Nc4cc(Cl)c5ncc(C#N)c(Nc6ccc(F)c(Cl)c6)c5c4)c4ccccc4)nn3)C2)C1 [Example 774] |
| 72 | 6970 | CC(C)(C)N1CCC(n2cc([C@@H](Nc3cc(Cl)c4ncc(C#N)c(Nc5ccccc5)c4c3)c3ccc(Cl)cc3)nn2)CC1 [Example 777, (S)-6-(((1-(1-(tert-butyl)piperidin-4-yl)-1H-1,2,3-triazol-4-yl)(4-chlorophenyl)methyl)amino)-8-chloro-4-(phenylamino)quinoline-3-carbonitrile] |
| 2 | 305 | N#Cc1cnc2c(Cl)cc(N[C@@H](c3ccccc3)c3cn(C4CCNCC4)nn3)cc2c1Nc1ccc(F)c(Cl)c1 [Example 778, (S)-8-chloro-4-((3-chloro-4-fluorophenyl)amino)-6-((phenyl (1-(piperidin-4-yl)-1H-1,2,3-triazol-4-yl)methyl)amino) quinoline-3-carbonitrile] |
